target: T1, Gβ1γ2 (Homo sapiens, UniProt P62873); experiment: not given; settings: surface plasmon resonance; cited from earlier work

Row | SMILES | Kd
1 | O=C1OC2(c3ccccc31)c1ccc(O)c(O)c1Oc1c2ccc(O)c1O [gallein] | ~0.4 µM

tested on: neutrophil; experiment: not given; settings: cited from earlier work

Row | SMILES | chemoattractant-dependent neutrophil migration
2 | O=C1OC2(c3ccccc31)c1ccc(O)c(O)c1Oc1c2ccc(O)c1O [gallein] | inhibit

tested on: not given; experiment: not given; settings: mice; cited from earlier work

Row | SMILES | carrageenan-induced inflammation
3 | O=C1OC2(c3ccccc31)c1ccc(O)c(O)c1Oc1c2ccc(O)c1O [gallein] | lessen

tested on: phospholipase C; experiment: not given; settings: cited from earlier work

Row | SMILES | Gβγ-dependent activation of phospholipase C
4 | O=C(O)C1CCCCC1c1c2ccc(=O)c(O)c-2oc2c(O)c(O)ccc12 (centres unmarked) [compound 119910] | inhibit

target: T1, Gβ1γ2; experiment: Competition ELISA with the high-affinity SIGK peptide; settings: read-out: Median Inhibitory Concentration IC50 (binding inhibitors of SIGK); competition with SIGK peptide in ELISA

Row | IC50 | SMILES
5 | 35.4 µM | O=C1C(Cl)=C(Nc2ccc(S(=O)(=O)Nc3ccccn3)cc2)C(=O)c2ccccc21 [compound 45382]
6 | 8.1 µM | N=C1C(O)C2(I)c3ccccc3N3C(=N)C(O)C4c5ccccc5N1C4C32 (centres unmarked) [compound 118176]
7 | 69.7 µM | CC[N+](C)(CC)CCN1C(=O)c2ccccc2S1(=O)=O [compound 45126]
8 | 0.2 µM | O=C(O)/C=C/c1c2ccc(=O)c(O)c-2oc2c(O)c(O)ccc12 [compound 119911]
9 | 24 µM | O=C1c2ccccc2C(=O)c2c(NC3CCCCC3)ccc(Nc3ccc(S(=O)(=O)O)cc3)c21 [compound 128437]
10 | 7.1 µM | Cc1cc(O)c(-c2cc(O)c(C)cc2O)cc1O [compound 2805]
11 | 27 µM | O=C1c2ccccc2C(=O)c2c(Nc3cc4c5c(ccc6c7ccc8c9c(cc(Nc%10cccc%11c%10C(=O)c%10ccccc%10C%11=O)c(c3c56)c97)-c3ccccc3C8=O)C(=O)c3ccccc3-4)cccc21 [compound 23128]
12 | 197 µM | COc1ccc(CC[N@+]2(C)COc3cc4oc(=O)cc(C)c4cc3C2)cc1OC [compound 59275]
13 | 292 µM | CN(CCc1ccccn1)c1ccc2c(c1)C(=O)c1ccccc1-2 [compound 24048]
14 | 42.5 µM | O=C(c1ccc([N+](=O)[O-])cc1)C(Br)C(Br)c1ccnc2ccccc12 (centres unmarked) [compound 150289]
15 | 10.7 µM | CN1C[C@H](c2ccccc2)C(O)([C@]2(c3ccccc3)CN(C)C[C@@H](c3ccccc3)C2=O)[C@H](c2ccccc2)C1 (some centres unmarked) [compound 39207]
16 | 18 µM | Nc1ccc(-c2ccc(Nc3cc(S(=O)(=O)O)c(N)c4c3C(=O)c3ccccc3C4=O)cc2)c(S(=O)(=O)O)c1 [compound 125910]
17 | 2.4 µM | O=C1c2cc([N+](=O)[O-])ccc2-c2ccc3c4ccc5c6c(ccc(c7ccc1c2c73)c64)C(=O)c1cc([N+](=O)[O-])ccc1-5 [compound 51535]
18 | 4.3 µM | O=C(O)c1c(Br)c(Br)c(Br)c(Br)c1C1c2ccc(O)cc2Oc2cc(O)ccc21 [compound 119889]
19 | 16.5 µM | O=C1c2ccccc2C(=O)c2c1ccc(C(=O)O)c2-c1ccc2ccccc2c1 [compound 9608]
20 | 56.9 µM | Nc1cc(S(N)(=O)=O)ccc1SSc1ccc(S(N)(=O)=O)cc1N [compound 83217]
21 | 56 µM | Nc1c(S(=O)(=O)O)cc(Nc2cccc(S(N)(=O)=O)c2)c2c1C(=O)c1ccccc1C2=O [compound 117079]

The next lines start with the compound.

Row | SMILES | IC50
22 | C[N+]1(CC[N+]2(C)CCCC2c2cccnc2)CCCC1c1cccnc1 (centres unmarked) [compound 3284] | 262 µM
23 | CC1C2C=CC1C(c1c3ccc(=O)c(O)c-3oc3c(O)c(O)ccc13)C2C(=O)O (centres unmarked) [compound 119913] | 0.7 µM
24 | O=C(O)C1CCCCC1c1c2ccc(=O)c(O)c-2oc2c(O)c(O)ccc12 (centres unmarked) [compound 119910] | 0.2 µM
25 | CN(C)C1C(=O)C(C(N)=O)=C(O)C2(O)C(=O)C3=C(O)c4c(O)cccc4C(C)(O)C3CC12 (centres unmarked) [compound 69343] | 16.8 µM
26 | N=C(N)SCCN1CCCCC1 [compound 121771] | 198 µM
27 | NCCNC(=S)S [compound 83224] | 24.9 µM
28 | C[N+]1(CCC[N+]2(C)C[C@H]3[C@H](C2)[C@H]2C=C[C@@H]3CC2)CCOCC1 (some centres unmarked) [compound 90831] | 92.9 µM
29 | C[N+]1(CCN[N+]2(C)CCCCC2)CCc2ccccc2C1 (centres unmarked) [compound 17770] | 59.1 µM
30 | C[C@H]1CCCC2(CC[N+](C)(CCC[N+](C)(C)C)CC2)C1 (some centres unmarked) [compound 95676] | 182 µM
31 | O=C(O)[C@@H]1[C@H](C(=O)O)[C@]2(Cl)C(Cl)=C(Cl)[C@@]1(Cl)C2(Cl)Cl [compound 22225] | 11.4 µM
32 | C[C@]12CC[C@H]3[C@@H](CCC4=CC(=O)CC[C@@]43C)[C@@H]1CC[C@@H]2C(=O)COS(=O)(=O)c1ccc(Br)cc1 [compound 88915] | 47.7 µM
33 | CCC(=O)OCN1C(=O)C=CC1=O [compound 19630] | 53.6 µM
34 | CN(C)CS/C(N)=N/[C@H](O)C(Cl)(Cl)Cl [compound 14555] | 26 µM
35 | Cc1ccc(S(=O)(=O)OC2C(C3COC(C)(C)O3)OC3OC(C)(C)OC32)cc1 (centres unmarked) [compound 14163] | 5.9 µM
36 | Nc1ccc(S(=O)(=O)c2ccc(NCN3C(=O)NC(=O)C(=O)C3=O)cc2)cc1 [compound 34238] | 42 µM

tested on: PI3K; experiment: not given; settings: cited from earlier work

Row | SMILES | PI3K activation
37 | O=C1OC2(c3ccccc31)c1ccc(O)c(O)c1Oc1c2ccc(O)c1O [gallein] | inhibit

tested on: phosphoinositide 3-kinase γ (PI3K); experiment: not given; settings: cited from earlier work

Row | SMILES | Gβγ-dependent activation of phosphoinositide 3-kinase γ (PI3K)
38 | O=C(O)C1CCCCC1c1c2ccc(=O)c(O)c-2oc2c(O)c(O)ccc12 (centres unmarked) [compound 119910] | inhibit
